Results on 2 compounds are retold here after patent US6852707B1, “Remedies for hyperammonemia” (Suntory Limited, priority 1998, dated 2005).

For series [1] the following is noted: use against hyperammonemia; cited from earlier work.
In series [2] the test system is rats feeding on high-protein diet. The experiment in a line: Effects of xylobiose on rats feeding on high-protein diet (Example 2). The format is in vivo, rat. As to the method:
SD Male rats in a growth stage (15 heads) were fed on a high-protein feed (containing 50% casein) and divided in three groups; the first group consisting of 5 rats were administered 0.5% xylobiose; the second group also consisting of 5 rats were administered 1.0% xylobiose; the third was a control group consisting of 5 rats which were administered distilled water; the animals were let to drink these liquids ad libitum for 3 weeks. Throughout the test period, there were no effects on the amounts of feed and water taken by the rats and the increase in their body weight. The cumulative uptake was 4.7±0.2 g for 0.5% xylobiose and 7.5±0.6 g for 1.0% xylobiose; the daily uptake by the two groups was 0.24 g and 0.37 g, respectively.
At the end of the test, blood was sampled from the rats and the blood ammonia level was measured.

For series [3] the following is noted: gastric acid, digestive enzymes (Okazaki et al. 1991, 1992); cited from earlier work.

SMILES strings stand for the structures.

For the compound `NC[C@@H]1O[C@H](O[C@H]2[C@@H](O)[C@H](O[C@@H]3[C@@H](O)[C@H](N)C[C@H](N)[C@H]3O[C@H]3O[C@H](CN)[C@@H](O)[C@H](O)[C@H]3N)O[C@@H]2CO)[C@H](N)[C@@H](O)[C@@H]1O` [neomycin], in series [1], the documented side effects result was “renal disorder and deafness”.

With `OC1OC[C@@H](O[C@@H]2OC[C@@H](O)[C@H](O)[C@H]2O)[C@H](O)[C@H]1O` (some centres unmarked) [xylobiose], the “effects on amounts of feed and water taken and increase in body weight” value in series [2] (0.5% and 1.0% xylobiose, throughout the 3-week test period) is listed as “no effects”. Also, the “blood ammonia level versus control group” value was “lower than the value for the control group” in series [2] (0.5% xylobiose in drinking water ad libitum for 3 weeks) and “significantly low” in series [2] (1.0% xylobiose in drinking water ad libitum for 3 weeks, p<0.05). In addition, the “stability in the digestive tract” value in series [3] is given as “can reach the large intestine without being decomposed with gastric acid or digestive enzymes”.
